Columns and labels:
[1] = Cytotoxicity against Drosophila S2 cells by MTT assay; type: cell-based; conditions: Drosophila melanogaster
[2] = test system: Drosophila; experiment: Ex vivo immunosuppressive activity in Drosophila larvae assessed as inhibition of IMD signaling pathway by beta-galactosidase reporter gene assay; type: functional, organism-based
[3] = test system: HUVEC; experiment: Immunosuppressive activity in human HUVEC assessed as inhibition of TNF-alpha-induced IL8 production at 50 ug/mL after 12 hrs by ELISA relative to control; type: functional; set-up: scale not given: the % may be the effect or the level left
[4] = test system: HUVEC; experiment: Cytotoxicity against human HUVEC assessed as cell viability at 50 ug/ml; type: cell-based

NC(=O)/C=C/[C@H]1C[C@@H](O)[C@@H](O)C1
EC50 [1]: > 250 µM | EC50 [2]: 19 µM

O=C(/C=C/[C@H]1C[C@@H](O)[C@@H](O)C1)Nc1ccc([N+](=O)[O-])cc1
EC50 [1]: > 170 µM | EC50 [2]: > 170 µM

CNS(=O)(=O)/C=C/[C@H]1C[C@@H](O)[C@@H](O)C1
EC50 [1]: > 250 µM | Activity [3]: 70% | Activity [4]: Non-toxic | EC50 [2]: 4 µM

C/C=C/[C@H]1C[C@@H](O)[C@@H](O)C1
EC50 [1]: > 350 µM | EC50 [2]: 100 µM

CN(C)C(=O)/C=C/[C@H]1C[C@@H](O)[C@@H](O)C1
EC50 [1]: > 250 µM | EC50 [2]: 120 µM

O=C(/C=C/[C@H]1C[C@@H](O)[C@@H](O)C1)Nc1ccc(C(F)(F)F)cc1
EC50 [1]: > 160 µM | EC50 [2]: > 160 µM

CNC(=O)CC[C@H]1C[C@@H](O)[C@@H](O)C1
EC50 [1]: > 250 µM | EC50 [2]: 15 µM

CC(=O)c1ccc(NC(=O)/C=C/[C@H]2C[C@@H](O)[C@@H](O)C2)cc1
EC50 [1]: > 180 µM | EC50 [2]: > 180 µM

O=C(/C=C/[C@H]1C[C@@H](O)[C@@H](O)C1)Oc1ccccc1
EC50 [1]: > 200 µM | EC50 [2]: 100 µM

COC(=O)/C=C/[C@H]1C[C@@H](O)[C@@H](O)C1
EC50 [1]: > 350 µM | EC50 [2]: > 350 µM

O=C(/C=C/[C@H]1C[C@@H](O)[C@@H](O)C1)Nc1ccc(Cl)c(Cl)c1
EC50 [1]: > 160 µM | EC50 [2]: 56 µM

CNC(=O)CCCC[C@H]1C[C@@H](O)[C@@H](O)C1
EC50 [1]: > 250 µM | EC50 [2]: > 250 µM

CCCCCCOC(=O)/C=C/[C@H]1C[C@@H](O)[C@@H](O)C1
EC50 [1]: > 350 µM | EC50 [2]: 150 µM

CNC(=O)/C=C/[C@H]1C[C@@H](O)[C@@H](O)C1
EC50 [1]: > 250 µM | Activity [3]: 70% | Activity [4]: Non-toxic | EC50 [2]: 5.4 µM

CCCCNC(=O)/C=C/[C@H]1C[C@@H](O)[C@@H](O)C1
EC50 [1]: > 250 µM | EC50 [2]: > 250 µM

COc1ccc(NC(=O)/C=C/[C@H]2C[C@@H](O)[C@@H](O)C2)cc1
EC50 [1]: > 180 µM | Activity [4]: Toxic | EC50 [2]: 3.1 µM

CNC(=O)CCC[C@H]1C[C@@H](O)[C@@H](O)C1
EC50 [1]: > 250 µM | Activity [3]: 70% | Activity [4]: Non-toxic | EC50 [2]: 8.4 µM

CCC[C@H]1C[C@@H](O)[C@@H](O)C1
EC50 [1]: > 350 µM | EC50 [2]: 100 µM

CCNC(=O)/C=C/[C@H]1C[C@@H](O)[C@@H](O)C1
EC50 [1]: > 250 µM | EC50 [2]: 250 µM

CCCCCC[C@H]1C[C@@H](O)[C@@H](O)C1
EC50 [1]: 110 µM | EC50 [2]: 110 µM

O=C(/C=C/[C@H]1C[C@@H](O)[C@@H](O)C1)NO
EC50 [1]: > 250 µM | EC50 [2]: 13 µM

C/C=C/[C@@H]1C[C@@H](O)[C@@H](O)C1
EC50 [1]: > 350 µM | EC50 [2]: 350 µM

O=C(/C=C/[C@H]1C[C@@H](O)[C@@H](O)C1)Nc1ccc(Cl)cc1
EC50 [1]: > 180 µM | EC50 [2]: > 180 µM

O=C(/C=C/[C@H]1C[C@@H](O)[C@@H](O)C1)Nc1ccncc1
EC50 [1]: > 200 µM | EC50 [2]: > 20 µM

CNC(=O)C[C@H]1C[C@@H](O)[C@@H](O)C1
EC50 [1]: > 250 µM | EC50 [2]: 55 µM

O=C(/C=C/[C@H]1C[C@@H](O)[C@@H](O)C1)NC1CC1
EC50 [1]: > 250 µM | EC50 [2]: 240 µM

CNC(=O)/C=C/C(CCO)CCO
EC50 [1]: > 250 µM | EC50 [2]: > 250 µM

CN(C)c1ccc(NC(=O)/C=C/[C@H]2C[C@@H](O)[C@@H](O)C2)cc1
EC50 [1]: > 170 µM | EC50 [2]: 19 µM

O=C(O)/C=C/[C@H]1C[C@@H](O)[C@@H](O)C1
EC50 [1]: > 350 µM | EC50 [2]: 110 µM

O=C(/C=C/[C@H]1C[C@@H](O)[C@@H](O)C1)Nc1ccccc1
EC50 [1]: > 200 µM | Activity [3]: 70% | Activity [4]: Non-toxic | EC50 [2]: 4.5 µM

CC(C)(C)c1ccc(NC(=O)/C=C/[C@H]2C[C@@H](O)[C@@H](O)C2)cc1
EC50 [1]: > 180 µM | Activity [4]: Toxic | EC50 [2]: 4.4 µM

O=C(/C=C/[C@H]1C[C@@H](O)[C@@H](O)C1)Nc1ccc(F)cc1
EC50 [1]: > 180 µM | EC50 [2]: > 180 µM

Cc1ccc(NC(=O)/C=C/[C@H]2C[C@@H](O)[C@@H](O)C2)cc1
EC50 [1]: > 190 µM | EC50 [2]: 190 µM

CCOC(=O)/C=C/[C@H]1C[C@@H](O)[C@@H](O)C1
EC50 [1]: > 350 µM | EC50 [2]: 100 µM

O=C(/C=C/[C@H]1C[C@@H](O)[C@@H](O)C1)N1CCCCC1
EC50 [1]: > 250 µM | EC50 [2]: 180 µM

Reference: ChEMBL document CHEMBL1759855, “Synthesis and innate immunosuppressive effect of 1,2-cyclopentanediol derivatives” (Eur J Med Chem, 2011)
